Laboratory results published in ChEMBL document CHEMBL1649220, “New variant of CTX-M-type extended-spectrum beta-lactamases, CTX-M-71, with a Gly238Cys substitution in a Klebsiella pneumoniae isolate from Bulgaria” (2009).
In brackets after ≈: the same amount, converted by molar mass.

What follows are molecules tested on Klebsiella pneumoniae (assay: Antimicrobial activity against Klebsiella pneumoniae AH24-270 expressing blaCTX-M-71 gene by agar dilution method). Conditions: not given.
Assay type: functional

Structure (SMILES) | MIC [µg/mL]
CC(C)(O/N=C(\C(=O)N[C@@H]1C(=O)N2C(C(=O)[O-])=C(C[n+]3ccccc3)CS[C@H]12)c1csc(N)n1)C(=O)O [CEFTAZIDIME] | 16 (≈ 29.3 µM)
CCN1CCN(C(=O)N[C@@H](C(=O)N[C@@H]2C(=O)N3[C@@H]2SC(C)(C)[C@@H]3C(=O)O)c2ccccc2)C(=O)C1=O [PIPERACILLIN] | > 256
CO[C@@]1(NC(=O)Cc2cccs2)C(=O)N2C(C(=O)O)=C(COC(N)=O)CS[C@@H]21 [CEFOXITIN] | 64 (≈ 150 µM)

These molecules were tested on Escherichia coli (assay: Antimicrobial activity against Escherichia coli DH5alpha harboring pBC-CTX-M-71 plasmid by agar dilution method in presence of beta-lactamase inhibitor clavulanic acid). Conditions: DH5[alpha].
Assay type: functional

Structure (SMILES) | MIC [µg/mL]
CC(C)(O/N=C(\C(=O)N[C@@H]1C(=O)N2C(C(=O)[O-])=C(C[n+]3ccccc3)CS[C@H]12)c1csc(N)n1)C(=O)O [CEFTAZIDIME] | 0.25

What follows are molecules tested on Escherichia coli (assay: Antimicrobial activity against Escherichia coli DH5[alpha] harboring pBC-CTX-M-15 plasmid by agar dilution method). Conditions: not given.
Assay type: functional

Structure (SMILES) | MIC [µg/mL]
CC(C)(O/N=C(\C(=O)N[C@@H]1C(=O)N2C(C(=O)[O-])=C(C[n+]3ccccc3)CS[C@H]12)c1csc(N)n1)C(=O)O [CEFTAZIDIME] | 64 (≈ 117 µM)
CCN1CCN(C(=O)N[C@@H](C(=O)N[C@@H]2C(=O)N3[C@@H]2SC(C)(C)[C@@H]3C(=O)O)c2ccccc2)C(=O)C1=O [PIPERACILLIN] | > 256
CO[C@@]1(NC(=O)Cc2cccs2)C(=O)N2C(C(=O)O)=C(COC(N)=O)CS[C@@H]21 [CEFOXITIN] | 4 (≈ 9.36 µM)

These molecules were tested on Escherichia coli (assay: Antimicrobial activity against Escherichia coli DH5alpha harboring pBC-CTX-M-15 plasmid by agar dilution method in presence of beta-lactamase inhibitor clavulanic acid). Conditions: DH5[alpha].
Assay type: functional

Structure (SMILES) | MIC [µg/mL]
CC(C)(O/N=C(\C(=O)N[C@@H]1C(=O)N2C(C(=O)[O-])=C(C[n+]3ccccc3)CS[C@H]12)c1csc(N)n1)C(=O)O [CEFTAZIDIME] | 0.25

These molecules were tested on Klebsiella pneumoniae (assay: Antimicrobial activity against Klebsiella pneumoniae AH24-270 expressing blaCTX-M-71 gene by agar dilution method in presence of beta-lactamase inhibitor clavulanic acid). Conditions: not given.
Assay type: functional

Structure (SMILES) | MIC [µg/mL]
CC(C)(O/N=C(\C(=O)N[C@@H]1C(=O)N2C(C(=O)[O-])=C(C[n+]3ccccc3)CS[C@H]12)c1csc(N)n1)C(=O)O [CEFTAZIDIME] | 4

Each molecule was assayed on Escherichia coli (assay: Antimicrobial activity against Escherichia coli K-12 transconjugant harboring blaCTX-M-71 gene by agar dilution method in presence of beta-lactamase inhibitor clavulanic acid). Conditions: not given.
Assay type: functional

Structure (SMILES) | MIC [µg/mL]
CC(C)(O/N=C(\C(=O)N[C@@H]1C(=O)N2C(C(=O)[O-])=C(C[n+]3ccccc3)CS[C@H]12)c1csc(N)n1)C(=O)O [CEFTAZIDIME] | 0.25

The molecules below were run on Escherichia coli (assay: Antimicrobial activity against Escherichia coli DH5alpha harboring pBC-CTX-M-15 plasmid by agar dilution method in presence of beta-lactamase inhibitor Tazobactam). Conditions: DH5[alpha].
Assay type: functional

Structure (SMILES) | MIC [µg/mL]
CCN1CCN(C(=O)N[C@@H](C(=O)N[C@@H]2C(=O)N3[C@@H]2SC(C)(C)[C@@H]3C(=O)O)c2ccccc2)C(=O)C1=O [PIPERACILLIN] | 2

The molecules below were run on Escherichia coli (assay: Antimicrobial activity against Escherichia coli K-12 by agar dilution method in presence of beta-lactamase inhibitor clavulanic acid). Conditions: not given.
Assay type: functional

Structure (SMILES) | MIC [µg/mL]
CC(C)(O/N=C(\C(=O)N[C@@H]1C(=O)N2C(C(=O)[O-])=C(C[n+]3ccccc3)CS[C@H]12)c1csc(N)n1)C(=O)O [CEFTAZIDIME] | 0.06

The molecules below were run on Escherichia coli (assay: Antimicrobial activity against Escherichia coli K-12 by agar dilution method in presence of beta-lactamase inhibitor Tazobactam). Conditions: not given.
Assay type: functional

Structure (SMILES) | MIC [µg/mL]
CCN1CCN(C(=O)N[C@@H](C(=O)N[C@@H]2C(=O)N3[C@@H]2SC(C)(C)[C@@H]3C(=O)O)c2ccccc2)C(=O)C1=O [PIPERACILLIN] | 1

Each molecule was assayed on Escherichia coli (assay: Antimicrobial activity against Escherichia coli DH5[alpha] by agar dilution method). Conditions: not given.
Assay type: functional

Structure (SMILES) | MIC [µg/mL]
CC(C)(O/N=C(\C(=O)N[C@@H]1C(=O)N2C(C(=O)[O-])=C(C[n+]3ccccc3)CS[C@H]12)c1csc(N)n1)C(=O)O [CEFTAZIDIME] | 0.13 (≈ 0.238 µM)
CCN1CCN(C(=O)N[C@@H](C(=O)N[C@@H]2C(=O)N3[C@@H]2SC(C)(C)[C@@H]3C(=O)O)c2ccccc2)C(=O)C1=O [PIPERACILLIN] | 2 (≈ 3.86 µM)
CO[C@@]1(NC(=O)Cc2cccs2)C(=O)N2C(C(=O)O)=C(COC(N)=O)CS[C@@H]21 [CEFOXITIN] | 4 (≈ 9.36 µM)

What follows are molecules tested on Klebsiella pneumoniae (assay: Antimicrobial activity against Klebsiella pneumoniae AH24-270 expressing blaCTX-M-71 gene by agar dilution method in presence of beta-lactamase inhibitor Tazobactam). Conditions: not given.
Assay type: functional

Structure (SMILES) | MIC [µg/mL]
CCN1CCN(C(=O)N[C@@H](C(=O)N[C@@H]2C(=O)N3[C@@H]2SC(C)(C)[C@@H]3C(=O)O)c2ccccc2)C(=O)C1=O [PIPERACILLIN] | > 256

Each molecule was assayed on Escherichia coli (assay: Antimicrobial activity against Escherichia coli DH5alpha harboring pBC-CTX-M-71 plasmid by agar dilution method in presence of beta-lactamase inhibitor Tazobactam). Conditions: DH5[alpha].
Assay type: functional

Structure (SMILES) | MIC [µg/mL]
CCN1CCN(C(=O)N[C@@H](C(=O)N[C@@H]2C(=O)N3[C@@H]2SC(C)(C)[C@@H]3C(=O)O)c2ccccc2)C(=O)C1=O [PIPERACILLIN] | 2

What follows are molecules tested on Escherichia coli (assay: Antimicrobial activity against Escherichia coli DH5[alpha] harboring pBC-CTX-M-71 plasmid by agar dilution method). Conditions: not given.
Assay type: functional

Structure (SMILES) | MIC [µg/mL]
CC(C)(O/N=C(\C(=O)N[C@@H]1C(=O)N2C(C(=O)[O-])=C(C[n+]3ccccc3)CS[C@H]12)c1csc(N)n1)C(=O)O [CEFTAZIDIME] | 8 (≈ 14.6 µM)
CCN1CCN(C(=O)N[C@@H](C(=O)N[C@@H]2C(=O)N3[C@@H]2SC(C)(C)[C@@H]3C(=O)O)c2ccccc2)C(=O)C1=O [PIPERACILLIN] | 256 (≈ 495 µM)
CO[C@@]1(NC(=O)Cc2cccs2)C(=O)N2C(C(=O)O)=C(COC(N)=O)CS[C@@H]21 [CEFOXITIN] | 4 (≈ 9.36 µM)

What follows are molecules tested on Escherichia coli (assay: Antimicrobial activity against Escherichia coli DH5alpha by agar dilution method in presence of beta-lactamase inhibitor clavulanic acid). Conditions: DH5[alpha].
Assay type: functional

Structure (SMILES) | MIC [µg/mL]
CC(C)(O/N=C(\C(=O)N[C@@H]1C(=O)N2C(C(=O)[O-])=C(C[n+]3ccccc3)CS[C@H]12)c1csc(N)n1)C(=O)O [CEFTAZIDIME] | 0.06

Each molecule was assayed on Escherichia coli (assay: Antimicrobial activity against Escherichia coli K-12 transconjugant harboring blaCTX-M-71 gene by agar dilution method in presence of beta-lactamase inhibitor Tazobactam). Conditions: not given.
Assay type: functional

Structure (SMILES) | MIC [µg/mL]
CCN1CCN(C(=O)N[C@@H](C(=O)N[C@@H]2C(=O)N3[C@@H]2SC(C)(C)[C@@H]3C(=O)O)c2ccccc2)C(=O)C1=O [PIPERACILLIN] | 16

The molecules below were run on Escherichia coli (assay: Antimicrobial activity against Escherichia coli K-12 transconjugant harboring blaCTX-M-71 gene by agar dilution method). Conditions: not given.
Assay type: functional

Structure (SMILES) | MIC [µg/mL]
CC(C)(O/N=C(\C(=O)N[C@@H]1C(=O)N2C(C(=O)[O-])=C(C[n+]3ccccc3)CS[C@H]12)c1csc(N)n1)C(=O)O [CEFTAZIDIME] | 4 (≈ 7.32 µM)
CCN1CCN(C(=O)N[C@@H](C(=O)N[C@@H]2C(=O)N3[C@@H]2SC(C)(C)[C@@H]3C(=O)O)c2ccccc2)C(=O)C1=O [PIPERACILLIN] | > 256
CO[C@@]1(NC(=O)Cc2cccs2)C(=O)N2C(C(=O)O)=C(COC(N)=O)CS[C@@H]21 [CEFOXITIN] | 2 (≈ 4.68 µM)

What follows are molecules tested on Escherichia coli (assay: Antimicrobial activity against Escherichia coli K-12 by agar dilution method). Conditions: not given.
Assay type: functional

Structure (SMILES) | MIC [µg/mL]
CC(C)(O/N=C(\C(=O)N[C@@H]1C(=O)N2C(C(=O)[O-])=C(C[n+]3ccccc3)CS[C@H]12)c1csc(N)n1)C(=O)O [CEFTAZIDIME] | 0.06 (≈ 0.11 µM)
CCN1CCN(C(=O)N[C@@H](C(=O)N[C@@H]2C(=O)N3[C@@H]2SC(C)(C)[C@@H]3C(=O)O)c2ccccc2)C(=O)C1=O [PIPERACILLIN] | 1 (≈ 1.93 µM)
CO[C@@]1(NC(=O)Cc2cccs2)C(=O)N2C(C(=O)O)=C(COC(N)=O)CS[C@@H]21 [CEFOXITIN] | 2 (≈ 4.68 µM)

Each molecule was assayed on Escherichia coli (assay: Antimicrobial activity against Escherichia coli DH5alpha by agar dilution method in presence of beta-lactamase inhibitor Tazobactam). Conditions: DH5[alpha].
Assay type: functional

Structure (SMILES) | MIC [µg/mL]
CCN1CCN(C(=O)N[C@@H](C(=O)N[C@@H]2C(=O)N3[C@@H]2SC(C)(C)[C@@H]3C(=O)O)c2ccccc2)C(=O)C1=O [PIPERACILLIN] | 1
